Measured values as given in US4328242A, “α-(3,4,5-Trimethoxyhenzoyl)thiopropionyl-glycine” (Ausoria Farmaceutici S.r.l., priority 1980, dated 1982).

Columns and labels:
[1] = Stability in reducing medium (SO2); type: physicochemical; conditions: 25 mg/ml, sodium bisulfite calculated as SO2, refluxed three hours
Protocol: In the presence of SO2 --solutions containing 25 mg/ml of TBPG and MPG respectively in the presence of sodium bisulfite calculated as SO2 are warmed and refluxed for a period of three hours.

anaesthesized cats = assay: Pharmacodynamics in anaesthesized cats; type: in vivo; conditions: up to 50 mg/kg intravenously
guinea pigs = assay: Antibronchospastic activity, histamine aerosol; type: in vivo; conditions: oral, rectal or inhalation, 200 and 400 mg/kg
Text: Histamine administered in the form of an aerosol has caused in guinea pigs symptoms of broncho-spasm accompanied by convulsions, irreversible collapse and death.

[2] = type: in vivo; conditions: rats, oral route, equimolar doses
Mice = assay: Acute toxicity in mice; type: in vivo; conditions: 20 tested
Acute toxicity in mice = type: in vivo; conditions: mouse, in vivo; for mortality at 240 h: read-out: % Death; for LD50 at 240 h: 10 days observation, probits, read-out: DL50 mg/kg (Confidential Limits)
rats [3] = assay: Protective action on chronic bronchitis induced by inhalation of SO2; type: in vivo; conditions: SO2 aerosol, 100 and 400 mg/kg oral, rectal and inhalation, two weeks
Protocol: Bronchopulmonary lesions were induced in the animals by aerosolization of SO2. The animals were then treated for two weeks with TBPG in the dosage of 100 and 400 mg/kg by the oral route, rectal route and by inhalation.

rats [4] = assay: Chronic toxicity in rats; type: in vivo; conditions: 24 weeks, 125 and 250 mg/kg oral, 200 mg/kg by inhalation
Protocol: The chronic toxicity of TBPG has been investigated in rats and dogs treated for a period of 24 weeks with 125 mg/kg and 250 mg/kg by the oral route and 200 mg/kg by inhalation.

New Zealand rabbits = assay: Toxicity in the fetus, rabbits; type: in vivo; conditions: female rabbits, daily oral and subcutaneous, 250 and 500 mg/kg, twenty eight days of gestation
Text: Toxicity in the fetus of TBPG has been studied in albino Sprague-Dawley rats and in New Zealand rabbits. In the case of rats both male and female, the treatment has been initiated four weeks prior to coupling and then has been continued only in the females during the twenty days of gestation.
In the case of female rabbits, the treatment has been carried out during the twenty eight days of gestation.

[5] = target: T1, glutathione peroxidase (GSHP) (Homo sapiens, UniProt P07203); assay: Action on the glutathione peroxidase (GSHP); type: biochemical; conditions: system glutathione/NADPH/GSH-reductase/cumene hydroperoxide; read-out: apparent Ki
T1 sequence (P07203 1-203): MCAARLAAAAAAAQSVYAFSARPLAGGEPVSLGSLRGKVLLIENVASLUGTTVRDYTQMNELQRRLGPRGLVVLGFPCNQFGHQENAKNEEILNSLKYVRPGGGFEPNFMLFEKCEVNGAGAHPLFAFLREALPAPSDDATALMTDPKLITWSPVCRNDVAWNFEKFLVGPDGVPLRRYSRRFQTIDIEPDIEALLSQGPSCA
Text: The experiment has been carried out for the purpose of determining the inhibitory activity if any of TBPG with respect to GSHP, an enzyme well known connected with phlogistic processes.
The results have been obtained using the system glutathione/NADPH/GSH-reductase/cumene hydroperoxide and have shown that TBPG is capable of exerting an inhibitory activity on GSHP with an apparent Ki 5.4.10^-3 molar.

rats [6] = assay: Bronchosecretolithic activity in rats (sodium fluorescine method); type: in vivo; conditions: 300 mg/kg intraperitoneally
Protocol: The secretolithic activity of TBPG has been determined in comparison to α-mercaptopropionylglycine by administering 300 mg/kg of the substance intraperitonally and comparing with 135 mg/kg of α-mercaptopropionylglycine administered also intraperitoneally. The doses are equimolar. The method is based on the use of sodium fluorescine described by H. M. Mawatari (Experimental Studies on the Expectorant Action of Several Drugs, Kogoshima Daigakeu Igakeu Zasshi 27, 561, 1976).

Acute toxicity in rats = type: in vivo; conditions: rat, in vivo; for mortality at 240 h: read-out: % Death; for LD50 at 240 h: 10 days observation, probits, read-out: DL50 mg/kg (Confidential Limits)
Protocol: (§1) The acute toxicity has been studied with Swiss albino rats and Wistar albino rats and in both instances, animals of both sexes have been used. The product is administered orally and endoperitoneally and the period of observation is ten days after the initial treatment. The values of DL50 by the statistical method with confidential limits up to 95% are calculated by means of the method of probits reported in Table I. Probits is a statistical unit of probable deviation used in biological assays; equal to the normal equivalent deviate increased by 5, used to make all normal equivalent deviation values positive.

Rats [7] = assay: Acute toxicity in rats; type: in vivo; conditions: 20 tested
Protocol: as §1

rabbits = assay: Subchronic toxicity, rectal route; type: in vivo; conditions: eight consecutive weeks
rats [8] = assay: Regenerative action in partial hepatectomy; type: in vivo; conditions: partial hepatectomy (70% excision), 200 and 400 mg/kg oral, six days

SMILES: COc1cc(C(=O)SC(C)C(=O)NCC(=O)O)cc(OC)c1OC (stereo not drawn) [TBPG, α-(3,4,5-trimethoxybenzoyl)thiopropionylglycine]
- stability in reducing medium [1]: undergoes no physico-chemical change or organoleptic change
- arterial pressure (anaesthesized cats): low and temporary reduction
- cardiac frequency, respiratory dynamics and electrocardiogram (anaesthesized cats): without any effect
- tolerance (anaesthesized cats): very high tolerance
- period of time between administration of the histamine aerosol and appearance of bronchospastic symptoms (guinea pigs): increased very substantially
- concentration in the kidney [2]: high concentrations in the kidney
- distribution in the organs [2]: sufficiently homogenous
- content in the lungs with respect to α-mercaptopropionylglycine ([2]; statistically significant): substantially higher content in the lungs
- No. of Animals Dead (Mice; i.p., 1500 mg/kg): 0
- No. of Animals Dead (Mice; i.p., 2000 mg/kg): 8
- No. of Animals Dead (Mice; i.p., 2500 mg/kg): 10
- No. of Animals Dead (Mice; i.p., 3000 mg/kg): 13
- No. of Animals Dead (Mice; i.p., 3500 mg/kg): 18
- No. of Animals Dead (Mice; orally, 3000 mg/kg): 1
- No. of Animals Dead (Mice; orally, 4000 mg/kg): 6
- No. of Animals Dead (Mice; orally, 5000 mg/kg): 10
- No. of Animals Dead (Mice; orally, 6000 mg/kg): 15
- No. of Animals Dead (Mice; orally, 7000 mg/kg): 18
- mortality at 240 h (Acute toxicity in mice; ip, 1500 mg/kg): 0%
- mortality at 240 h (Acute toxicity in mice; ip, 2000 mg/kg): 40%
- mortality at 240 h (Acute toxicity in mice; ip, 2500 mg/kg): 50%
- mortality at 240 h (Acute toxicity in mice; ip, 3000 mg/kg): 65%
- mortality at 240 h (Acute toxicity in mice; ip, 3500 mg/kg): 90%
- LD50 at 240 h (Acute toxicity in mice; ip, 95% limits (2192-2963)): 2530 mg/kg
- mortality at 240 h (Acute toxicity in mice; po, orally, 3000 mg/kg): 5%
- mortality at 240 h (Acute toxicity in mice; po, orally, 4000 mg/kg): 30%
- mortality at 240 h (Acute toxicity in mice; po, orally, 5000 mg/kg): 50%
- mortality at 240 h (Acute toxicity in mice; po, orally, 6000 mg/kg): 75%
- mortality at 240 h (Acute toxicity in mice; po, orally, 7000 mg/kg): 90%
- LD50 at 240 h (Acute toxicity in mice; po, orally, 95% limits (4539-5254)): 4860 mg/kg
- protection of the bronchi and lungs (bronchopulmonary lesions and mortality) (rats [3]): significant action in the protection of the bronchi and lungs
- chronic toxicity (symptoms, behavior, deaths, body growth, hematology, hepatic and renal functions, organs) (rats [4]): totally innocuous
- toxicity in the fetus (deformation, number and weight of living offspring) (New Zealand rabbits): has not induced any deformation in the fetus and has not affected the number and the weight of the living offspring
- Ki [5]: 5.4 mM
- bronchosecretolithic activity (rats [6]): 34.4%
- mortality at 240 h (Acute toxicity in rats; ip, 1500 mg/kg): 0%
- mortality at 240 h (Acute toxicity in rats; ip, 2000 mg/kg): 30%
- mortality at 240 h (Acute toxicity in rats; ip, 2500 mg/kg): 45%
- mortality at 240 h (Acute toxicity in rats; ip, 3000 mg/kg): 70%
- mortality at 240 h (Acute toxicity in rats; ip, 3500 mg/kg): 85%
- LD50 at 240 h (Acute toxicity in rats; ip, 95% limits (2483-2887)): 2670 mg/kg
- mortality at 240 h (Acute toxicity in rats; po, orally, 3000 mg/kg): 5%
- mortality at 240 h (Acute toxicity in rats; po, orally, 4000 mg/kg): 30%
- mortality at 240 h (Acute toxicity in rats; po, orally, 5000 mg/kg): 45%
- mortality at 240 h (Acute toxicity in rats; po, orally, 6000 mg/kg): 60%
- mortality at 240 h (Acute toxicity in rats; po, orally, 7000 mg/kg): 85%
- LD50 at 240 h (Acute toxicity in rats; po, orally, 95% limits (4879-5873)): 5230 mg/kg
- No. of Animals Dead (Rats [7]; i.p., 1500 mg/kg): 0
- No. of Animals Dead (Rats [7]; i.p., 2000 mg/kg): 6
- No. of Animals Dead (Rats [7]; i.p., 2500 mg/kg): 9
- No. of Animals Dead (Rats [7]; i.p., 3000 mg/kg): 14
- No. of Animals Dead (Rats [7]; i.p., 3500 mg/kg): 17
- No. of Animals Dead (Rats [7]; orally, 3000 mg/kg): 1
- No. of Animals Dead (Rats [7]; orally, 4000 mg/kg): 6
- No. of Animals Dead (Rats [7]; orally, 5000 mg/kg): 9
- No. of Animals Dead (Rats [7]; orally, 6000 mg/kg): 12
- No. of Animals Dead (Rats [7]; orally, 7000 mg/kg): 17
- hematochemical data, hepatic and renal functions, autopsies and macro/microscopic controls of the main organs (rabbits; 400 mg/kg per day): have not shown any variations from the normal
- behavior and body growth of the animals (rabbits; two suppositories per day equal to 400 mg/kg): has not caused any irregularities
- regeneration of the hepatic tissue (rats [8]): favoring the regeneration of the hepatic tissue in statistically significant manner
